{
  "source": "paper PMC6538953",
  "about": "“Metal Ions Activate the Human Taste Receptor TAS2R7” (Chemical Senses, 2019)",
  "key": {"[1]": {"system": "mock-transfected HEK293 cells (Gα16-gust44 only)", "assay": "Calcium mobilization assay, mock-transfected cells (Gα16-gust44 only)", "assay_type": "cell-based, human", "details": "any concentration tested (cromolyn 10 mM)", "experimental": "(§1) Human embryonic kidney 293 (PEAKrapid, ATCC # CRL-2828) cells were cultured in Opti-MEM medium with 4% fetal bovine serum. One day before transfection, cells were seeded on a 96-well plate at a density of 25 000 per well. Cells were then transiently transfected with a TAS2R construct (0.1 µg/well) along with a G protein Gα16-gust44 (0.1 µg/well) construct by Lipofectamine 2000 (0.5 µl/well). For controls, only Gα16-gust44 was used (mock transfection). Twenty-four hours after transfection, cells were washed with HBSS including 10 mM HEPES and loaded with Fluo-4 in the dark for 1 h. After incubation, cells were washed 2 times with HBSS (including 10 mM HEPES), incubated in the dark for another 30 min, and then washed with assay solution once more before running the assay using a FlexStation III reader. Relative fluorescence units (excitation at 494 nm, emission at 516 nm, and auto cutoff at 515 nm) were read every 2 s for 2 min. Calcium mobilization traces were recorded.\nCalcium mobilization traces were raw data obtained from single wells. Changes in fluorescence (ΔF) were calculated as the peak fluorescence minus baseline fluorescence ([Lei et al. 2015]). The calcium mobilization was quantified as the percentage of change (ΔF) relative to baseline (F). […] Calcium mobilization traces and bar graphs along with dose-dependent plots were all generated by GraphPad Prism 7. […]"}, "human TAS2R7": {"target": "T1, human TAS2R7 (Homo sapiens, UniProt Q9NYW3)", "T1 construct": "first 45 residues of rat somatostatin receptor 3 (signal peptide) (N); expressed in transfected cells; host or cells: HEK293 (PEAKrapid, ATCC CRL-2828)", "T1 sequence (Q9NYW3 1-318)": "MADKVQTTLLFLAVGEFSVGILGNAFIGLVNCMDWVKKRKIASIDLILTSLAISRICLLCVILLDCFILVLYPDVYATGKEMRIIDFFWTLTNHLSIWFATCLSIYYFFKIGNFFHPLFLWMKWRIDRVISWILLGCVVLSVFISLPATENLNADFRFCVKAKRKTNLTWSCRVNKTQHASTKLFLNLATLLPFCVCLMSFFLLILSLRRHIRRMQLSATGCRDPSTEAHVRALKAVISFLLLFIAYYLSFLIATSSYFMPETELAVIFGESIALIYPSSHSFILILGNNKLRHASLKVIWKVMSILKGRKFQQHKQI", "assay": "Calcium mobilization assay, HEK293 cells transfected with TAS2R7 and Gα16-gust44", "assay_type": "cell-based", "text": "(§2) The coding sequences of human TAS2Rs were amplified from human genomic DNA, then subcloned into pcDNA3.1(+) vector, with the herpes simplex virus glycoprotein D epitope (HSV) at the C-terminal and a signal peptide consisting of the first 45 amino acid residues of the rat somatostatin receptor 3 at the N-terminal, essentially as described previously ([Bufe et al. 2002]). Point mutations in human TAS2R7 (NCBI Reference Sequence: NP_076408.1) were constructed by site-directed mutagenesis. All the constructs were confirmed by Sanger sequencing.\nAll tested compounds were purchased from Sigma–Aldrich, with the exception of diphenidol hydrochloride (Reagent World) and L-praziquantel (manufactured by Shaoxing Pharmaceutical Co. Ltd.). All the metal ions were dissolved in the assay solution (130 mM NaCl, 5 mM KCl, 2 mM CaCl2, and 10 mM glucose; pH 7.4) unless specified otherwise, and the bitter compounds (diphenidol, quinine, and chlorphenamine) were dissolved first in dimethyl sulfoxide (DMSO) as stock solution and then diluted with the assay solution; the final DMSO concentration was below 0.5%, with the exception of cromolyn, which is dissolved in the assay solution directly. For our initial screening (Table 1), Hanks’ balanced salt solution (HBSS, ThermoFisher, catalog no. 14025134) supplemented with 10 mM hydroxyethyl piperazineethanesulfonic acid (HEPES) were used as the assay buffer.\nas §1\n(§3) Calcium mobilization traces were raw data obtained from single wells. Changes in fluorescence (ΔF) were calculated as the peak fluorescence minus baseline fluorescence ([Lei et al. 2015]). The calcium mobilization was quantified as the percentage of change (ΔF) relative to baseline (F). […] Calcium mobilization traces and bar graphs along with dose-dependent plots were all generated by GraphPad Prism 7. Analysis of variance with Dunnett’s multiple comparisons test was used for statistical analysis. *P < 0.05.\nTo determine whether a TAS2R responds to metal ions, we expressed all 25 human bitter receptors individually in HEK293 cells (PEAKrapid) by transient transfection of a TAS2R along with a coupling chimeric G protein, Gα16-gust44. All TAS2Rs were cloned from human genomic DNA. Activation of human TAS2Rs was monitored by the calcium mobilization assay ([Lei et al. 2015]). We tested these receptors individually for their responses toward metal ions: ZnSO4 (20 mM), CuSO4 (20 mM), and MgCl2 (20 mM) (Table 1, Figure 1A). […] To determine the breadth of tuning of TAS2R7 toward metal ions, we also tested MnCl2 (20 mM), Al2(SO4)3 ([…]), and CaCl2 (20 mM) (Figure 1B)."}, "[2]": {"design": "method as in Lau et al. 1991", "details": "administered systemically, animal studies; ref Lau et al. 1991; cited from earlier work"}, "CaSR": {"system": "CaSR", "details": "ref Spurney et al. 1999; cited from earlier work"}, "[3]": {"target": "T2, human TAS2R7 E264^7.32L mutant (Homo sapiens, UniProt Q9NYW3, E264L)", "T2 construct": "signal peptide: first 45 amino acid residues of rat somatostatin receptor 3 (N); expressed in transfected cells; host or cells: HEK293 PEAKrapid (ATCC CRL-2828), transient, co-transfected with Gα16-gust44", "T2 sequence (Q9NYW3 1-318 E264L)": "T1 sequence (Q9NYW3 1-318) with E264L", "assay": "Calcium mobilization assay, TAS2R7 mutant E264L", "assay_type": "cell-based", "details": "20 mM metal ions except 0.16 mM Al2(SO4)3; cromolyn 10 mM; Figure 6B", "text": "as §2, §1\nas §3, with “0.05. […]” for “0.05.”"}, "[4]": {"target": "T3, human TAS2R7 E264^7.32K mutant (Homo sapiens, UniProt Q9NYW3, E264K)", "T3 construct": "signal peptide: first 45 amino acid residues of rat somatostatin receptor 3 (N); expressed in transfected cells; host or cells: HEK293 PEAKrapid (ATCC CRL-2828), transient, co-transfected with Gα16-gust44", "T3 sequence (Q9NYW3 1-318 E264K)": "T1 sequence (Q9NYW3 1-318) with E264K", "assay": "Calcium mobilization assay, TAS2R7 mutant E264K", "assay_type": "cell-based", "details": "20 mM metal ions except 0.16 mM Al2(SO4)3; cromolyn 10 mM; Figure 6B", "text": "as §2, §1, §3\nTo assess the importance of these residues, we performed site-directed mutagenesis. We mutated the negatively charged residues E16^1.42, E264^7.32, and E271^7.39 to Q (glutamine), K (lysine), or L (leucine). The facing H94^3.37 was mutated to F (phenylalanine). HEK293 cells that expressed mutant receptors along with Gα16-gust44 were examined for their responses to metal ions (20 mM for all except 0.16 mM Al2(SO4)3) and cromolyn (10 mM, as a positive control) to assess receptor’s function. To determine the expression level of each receptor, we stained the wild-type or mutant receptor-transfected cells using an anti-HSV antibody since all the receptors are tagged with HSV at c-terminal. […]"}},
  "note": "Positions count from the first letter of the chain named. Where two headings read alike, the source gives them in different places.",
  "data": [
    {"smiles": "O=S(=O)([O-])[O-].O=S(=O)([O-])[O-].O=S(=O)([O-])[O-].[Al+3].[Al+3]", "note": "[Al2(SO4)3, aluminum sulfate]", "values": [
      {"measurement": "Response of mock-transfected cells", "setting": "[1]", "value": "no responses"},
      {"measurement": "Activation of TAS2R7 by metal ions", "setting": "human TAS2R7; 20 mM, Figure 1A,B", "value": "activated the receptor"},
      {"measurement": "Dose dependence of TAS2R7 response", "setting": "human TAS2R7; Figure 2A,C", "value": "dose-dependent responses"},
      {"measurement": "EC50", "setting": "human TAS2R7; assay solution containing calcium, Figure 3A, read-out: EC50, TAS2R7, in the presence of calcium", "value": 29, "unit": "µM"},
      {"measurement": "EC50", "setting": "human TAS2R7; assay solution containing no calcium, Figure 3A, read-out: EC50, TAS2R7, in the absence of calcium", "value": 55, "unit": "µM"},
      {"measurement": "EC50", "setting": "human TAS2R7; assay solution with 2 mM CaCl2, Figure 2, read-out: EC50, TAS2R7 concentration-response", "value": "39 ± 15", "unit": "µM"},
      {"measurement": "Concentration reached in serum", "setting": "[2]", "value": 50, "unit": "µM"},
      {"measurement": "Activity at CaSR", "setting": "CaSR", "value": "weak agonist"},
      {"measurement": "Response of E264L mutant receptor", "setting": "[3]", "value": "insensitive"},
      {"measurement": "Response of E264K mutant receptor", "setting": "[4]", "value": "specific loss of responses"}
    ]}
  ]
}
